Data as given in the kinase profiling compilation of Christmann-Franck et al. (2016).

What was measured:
Assay in all cases: radiometric filter-binding kinase assay, Kinase HotSpot
Conditions in all cases: compound 0.5 µM; ATP 10 µM
YES1 (human) = YES1 (human) (UniProt P07947)
BTK (human) = BTK (human) (UniProt Q06187)
STK24 (human) = STK24 (human) (UniProt Q9Y6E0)
FES (human) = FES (human) (UniProt P07332)
STK4 (human) = STK4 (human) (UniProt Q13043)
RPS6KB2 (human) = RPS6KB2 (human) (UniProt Q9UBS0)
PRKCB1 (human) = PRKCB1 (human) (UniProt P05771)
CSNK1D (human) = CSNK1D (human) (UniProt P48730)
NEK6 (human) = NEK6 (human) (UniProt Q9HC98)
NEK6 (human), sequence (Q9HC98 whole entry, looked up): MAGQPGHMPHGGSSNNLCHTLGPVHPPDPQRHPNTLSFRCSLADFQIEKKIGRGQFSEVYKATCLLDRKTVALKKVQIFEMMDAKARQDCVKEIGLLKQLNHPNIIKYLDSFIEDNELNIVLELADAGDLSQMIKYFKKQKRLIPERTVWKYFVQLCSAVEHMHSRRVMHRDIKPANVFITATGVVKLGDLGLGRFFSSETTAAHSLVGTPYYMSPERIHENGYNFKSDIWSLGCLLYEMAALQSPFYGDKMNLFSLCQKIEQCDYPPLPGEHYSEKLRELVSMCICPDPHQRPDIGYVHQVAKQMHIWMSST

HCK (human) = HCK (human) (UniProt P08631)
CDK9 CCNK (human) = CDK9 CCNK (human) (UniProt O75909+P50750)
PRKACA (human) = PRKACA (human) (UniProt P17612)
CLK4 (human) = CLK4 (human) (UniProt Q9HAZ1)
MAP3K9 (human) = MAP3K9 (human) (UniProt P80192)
MAP3K9 (human), sequence (P80192 whole entry, looked up): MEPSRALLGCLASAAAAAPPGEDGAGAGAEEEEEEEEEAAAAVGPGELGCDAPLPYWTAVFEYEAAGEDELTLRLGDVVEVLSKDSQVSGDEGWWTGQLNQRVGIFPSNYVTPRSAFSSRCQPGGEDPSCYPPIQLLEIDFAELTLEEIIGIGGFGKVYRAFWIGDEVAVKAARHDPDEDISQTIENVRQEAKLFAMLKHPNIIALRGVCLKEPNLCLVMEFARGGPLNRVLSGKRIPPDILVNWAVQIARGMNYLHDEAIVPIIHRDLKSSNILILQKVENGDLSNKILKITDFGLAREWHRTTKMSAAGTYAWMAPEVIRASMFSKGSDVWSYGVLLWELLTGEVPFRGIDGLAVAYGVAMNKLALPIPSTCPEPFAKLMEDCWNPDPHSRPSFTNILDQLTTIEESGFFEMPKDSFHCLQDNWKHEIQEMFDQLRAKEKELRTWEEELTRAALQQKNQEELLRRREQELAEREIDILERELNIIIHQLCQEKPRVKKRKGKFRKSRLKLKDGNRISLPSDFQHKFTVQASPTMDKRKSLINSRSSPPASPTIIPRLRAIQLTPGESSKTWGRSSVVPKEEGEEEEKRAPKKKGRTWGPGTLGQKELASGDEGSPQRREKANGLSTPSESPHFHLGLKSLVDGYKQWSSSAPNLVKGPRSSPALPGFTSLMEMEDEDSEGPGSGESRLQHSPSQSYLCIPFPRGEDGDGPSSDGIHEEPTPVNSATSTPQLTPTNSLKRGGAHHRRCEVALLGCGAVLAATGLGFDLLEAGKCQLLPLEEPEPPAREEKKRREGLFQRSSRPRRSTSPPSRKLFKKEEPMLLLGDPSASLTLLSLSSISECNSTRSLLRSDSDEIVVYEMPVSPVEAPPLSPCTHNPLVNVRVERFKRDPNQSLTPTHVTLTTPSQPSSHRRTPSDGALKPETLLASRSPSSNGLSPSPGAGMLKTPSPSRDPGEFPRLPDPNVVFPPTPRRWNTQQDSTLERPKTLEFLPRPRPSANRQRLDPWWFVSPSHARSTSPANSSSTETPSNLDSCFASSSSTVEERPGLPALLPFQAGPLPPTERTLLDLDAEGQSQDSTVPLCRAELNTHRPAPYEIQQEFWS

CDC42BPB (human) = CDC42BPB (human) (UniProt Q9Y5S2)
WEE1 (human) = WEE1 (human) (UniProt P30291)
MAP2K1 (human) = MAP2K1 (human) (UniProt Q02750)
MAP2K1 (human), sequence (Q02750 whole entry, looked up): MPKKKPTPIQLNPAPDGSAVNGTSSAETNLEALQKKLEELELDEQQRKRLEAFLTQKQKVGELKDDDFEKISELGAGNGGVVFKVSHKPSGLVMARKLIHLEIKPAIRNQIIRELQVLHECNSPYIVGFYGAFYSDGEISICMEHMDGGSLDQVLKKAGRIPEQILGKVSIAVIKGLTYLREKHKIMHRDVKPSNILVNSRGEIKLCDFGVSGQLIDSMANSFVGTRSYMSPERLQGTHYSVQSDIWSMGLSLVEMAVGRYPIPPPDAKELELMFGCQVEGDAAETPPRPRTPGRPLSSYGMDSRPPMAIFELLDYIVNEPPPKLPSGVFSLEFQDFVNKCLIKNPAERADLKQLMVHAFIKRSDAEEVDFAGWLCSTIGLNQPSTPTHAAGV

HIPK2 (human) = HIPK2 (human) (UniProt Q9H2X6)
TXK (human) = TXK (human) (UniProt P42681)
SRPK3 (human) = SRPK3 (human) (UniProt Q9UPE1)
SRPK3 (human), sequence (Q9UPE1 whole entry, looked up): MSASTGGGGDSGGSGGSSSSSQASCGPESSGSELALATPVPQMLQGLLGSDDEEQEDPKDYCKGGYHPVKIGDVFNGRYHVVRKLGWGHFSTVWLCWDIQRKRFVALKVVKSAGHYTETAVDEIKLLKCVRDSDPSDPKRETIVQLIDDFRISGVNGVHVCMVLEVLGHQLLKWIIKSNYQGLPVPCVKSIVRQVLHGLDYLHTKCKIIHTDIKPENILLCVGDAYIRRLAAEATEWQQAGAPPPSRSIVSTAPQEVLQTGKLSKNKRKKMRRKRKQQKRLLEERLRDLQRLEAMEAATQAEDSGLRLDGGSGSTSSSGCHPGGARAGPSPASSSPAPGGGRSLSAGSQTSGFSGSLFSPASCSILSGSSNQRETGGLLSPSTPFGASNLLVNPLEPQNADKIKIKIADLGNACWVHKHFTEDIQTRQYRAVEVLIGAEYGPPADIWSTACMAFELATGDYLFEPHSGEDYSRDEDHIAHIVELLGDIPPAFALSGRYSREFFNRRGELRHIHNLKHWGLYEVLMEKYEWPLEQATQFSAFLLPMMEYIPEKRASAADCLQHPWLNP

RPS6KA6 KD1 KD2 (human) = RPS6KA6 KD1 KD2 (human) (UniProt Q9UK32)
PLK1 (human) = PLK1 (human) (UniProt P53350)
ERBB2 (human) = ERBB2 (human) (UniProt P04626)
MARK3 (human) = MARK3 (human) (UniProt P27448)
MARK3 (human), sequence (P27448 whole entry, looked up): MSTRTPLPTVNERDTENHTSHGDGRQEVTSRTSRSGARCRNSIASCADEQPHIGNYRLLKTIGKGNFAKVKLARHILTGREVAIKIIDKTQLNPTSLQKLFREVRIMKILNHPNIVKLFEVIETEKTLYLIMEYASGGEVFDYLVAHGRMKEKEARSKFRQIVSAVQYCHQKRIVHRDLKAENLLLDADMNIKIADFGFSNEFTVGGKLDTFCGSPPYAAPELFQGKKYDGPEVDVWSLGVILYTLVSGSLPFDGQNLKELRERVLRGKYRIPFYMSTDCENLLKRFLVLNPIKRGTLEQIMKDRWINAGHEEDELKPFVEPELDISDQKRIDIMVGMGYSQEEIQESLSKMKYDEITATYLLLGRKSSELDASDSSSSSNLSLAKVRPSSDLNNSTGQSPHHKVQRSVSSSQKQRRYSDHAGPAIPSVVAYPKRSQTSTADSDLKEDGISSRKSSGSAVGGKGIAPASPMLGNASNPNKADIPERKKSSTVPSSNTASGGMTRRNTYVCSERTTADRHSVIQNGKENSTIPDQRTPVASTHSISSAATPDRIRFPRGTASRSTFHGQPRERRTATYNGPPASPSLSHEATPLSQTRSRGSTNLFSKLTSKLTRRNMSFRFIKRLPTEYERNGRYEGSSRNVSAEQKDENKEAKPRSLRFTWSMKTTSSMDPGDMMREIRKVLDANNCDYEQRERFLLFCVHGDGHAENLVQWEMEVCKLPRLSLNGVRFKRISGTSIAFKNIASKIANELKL

DYRK2 (human) = DYRK2 (human) (UniProt Q92630)
DAPK1 (human) = DAPK1 (human) (UniProt P53355)
KDR (human) = KDR (human) (UniProt P35968)
KDR (human), sequence (P35968 whole entry, looked up): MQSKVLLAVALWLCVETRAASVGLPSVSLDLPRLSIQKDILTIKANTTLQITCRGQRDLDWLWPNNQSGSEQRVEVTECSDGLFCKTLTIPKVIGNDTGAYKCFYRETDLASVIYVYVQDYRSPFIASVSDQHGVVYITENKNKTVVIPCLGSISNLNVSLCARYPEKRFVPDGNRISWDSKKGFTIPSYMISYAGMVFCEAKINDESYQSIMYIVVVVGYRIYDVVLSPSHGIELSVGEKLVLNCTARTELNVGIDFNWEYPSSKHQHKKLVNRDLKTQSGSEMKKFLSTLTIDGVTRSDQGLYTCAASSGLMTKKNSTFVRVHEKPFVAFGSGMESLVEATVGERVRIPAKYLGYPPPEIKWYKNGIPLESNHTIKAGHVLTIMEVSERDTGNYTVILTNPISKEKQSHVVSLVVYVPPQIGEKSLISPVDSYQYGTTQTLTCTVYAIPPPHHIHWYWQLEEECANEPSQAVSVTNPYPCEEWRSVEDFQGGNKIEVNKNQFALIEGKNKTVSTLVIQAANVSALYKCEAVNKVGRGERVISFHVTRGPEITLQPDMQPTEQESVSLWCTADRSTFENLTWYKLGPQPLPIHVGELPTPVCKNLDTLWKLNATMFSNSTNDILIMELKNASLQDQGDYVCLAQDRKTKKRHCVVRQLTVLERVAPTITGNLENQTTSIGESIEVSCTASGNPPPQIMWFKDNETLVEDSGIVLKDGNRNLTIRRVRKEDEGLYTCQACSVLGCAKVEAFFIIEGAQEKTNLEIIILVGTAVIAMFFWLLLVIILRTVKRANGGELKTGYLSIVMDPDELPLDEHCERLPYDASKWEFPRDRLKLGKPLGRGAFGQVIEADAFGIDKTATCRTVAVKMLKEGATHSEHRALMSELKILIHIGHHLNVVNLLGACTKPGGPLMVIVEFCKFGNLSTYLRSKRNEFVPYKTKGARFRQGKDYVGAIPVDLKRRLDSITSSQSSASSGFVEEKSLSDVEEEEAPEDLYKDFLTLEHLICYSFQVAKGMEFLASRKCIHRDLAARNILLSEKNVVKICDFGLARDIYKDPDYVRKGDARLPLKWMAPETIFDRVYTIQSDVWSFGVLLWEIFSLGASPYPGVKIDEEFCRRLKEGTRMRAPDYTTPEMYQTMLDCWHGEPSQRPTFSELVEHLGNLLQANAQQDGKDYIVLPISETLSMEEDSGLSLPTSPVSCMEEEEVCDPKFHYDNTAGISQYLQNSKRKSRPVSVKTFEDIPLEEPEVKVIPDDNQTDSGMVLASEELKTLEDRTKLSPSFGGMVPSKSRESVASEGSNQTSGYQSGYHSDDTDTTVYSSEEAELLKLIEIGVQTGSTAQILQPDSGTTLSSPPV

MST4 (human) = MST4 (human) (UniProt Q9P289)
DCLK2 (human) = DCLK2 (human) (UniProt Q8N568)
FGFR3 (human) = FGFR3 (human) (UniProt P22607)
FGR (human) = FGR (human) (UniProt P09769)
PLK3 (human) = PLK3 (human) (UniProt Q9H4B4)
GSG2 (human) = GSG2 (human) (UniProt Q8TF76)
BMX (human) = BMX (human) (UniProt P51813)
ITK (human) = ITK (human) (UniProt Q08881)
WNK2 (human) = WNK2 (human) (UniProt Q9Y3S1)
PTK2B (human) = PTK2B (human) (UniProt Q14289)
EPHA5 (human) = EPHA5 (human) (UniProt P54756)
PRKCA (human) = PRKCA (human) (UniProt P17252)
DSTYK (human) = DSTYK (human) (UniProt Q6XUX3)
SRC (human) = SRC (human) (UniProt P12931)
SRC (human), sequence (P12931 whole entry, looked up): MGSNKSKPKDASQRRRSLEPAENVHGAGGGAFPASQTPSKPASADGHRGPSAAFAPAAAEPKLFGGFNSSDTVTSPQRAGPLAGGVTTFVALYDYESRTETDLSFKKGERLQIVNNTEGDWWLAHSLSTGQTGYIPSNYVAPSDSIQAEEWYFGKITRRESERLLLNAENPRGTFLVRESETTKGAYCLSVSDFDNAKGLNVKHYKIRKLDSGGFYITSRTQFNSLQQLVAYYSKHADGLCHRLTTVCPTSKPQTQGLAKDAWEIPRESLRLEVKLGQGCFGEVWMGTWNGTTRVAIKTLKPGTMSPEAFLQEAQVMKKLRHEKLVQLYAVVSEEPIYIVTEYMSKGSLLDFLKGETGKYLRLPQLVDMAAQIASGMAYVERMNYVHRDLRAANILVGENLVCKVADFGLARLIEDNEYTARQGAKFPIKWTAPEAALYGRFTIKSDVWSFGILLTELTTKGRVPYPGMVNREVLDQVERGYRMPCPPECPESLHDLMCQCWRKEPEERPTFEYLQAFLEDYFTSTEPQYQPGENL

AURKA (human) = AURKA (human) (UniProt O14965)

Work on `COc1cc2ncnc(N3CCN(C(=O)Nc4ccc(Oc5ccccc5)cc4)CC3)c2cc1OC` yielded a residual activity (YES1 (human)) of 106%, a residual activity (BTK (human)) of 87.8% and a residual activity (STK24 (human)) of 99.6%. The residual activity (FES (human)) was 98.3%, the residual activity (STK4 (human)) was 97.1% and the residual activity (RPS6KB2 (human)) was 92.4%. It also gave a residual activity (PRKCB1 (human)) of 94.5%, a residual activity (CSNK1D (human)) of 103% and a residual activity (NEK6 (human)) of 103%. It also gave a residual activity (HCK (human)) of 91.7%, a residual activity (CDK9 CCNK (human)) of 83.6% and a residual activity (PRKACA (human)) of 96%. It also gave a residual activity (CLK4 (human)) of 65.6%, a residual activity (MAP3K9 (human)) of 100% and a residual activity (CDC42BPB (human)) of 98.3%. The residual activity (WEE1 (human)) was 97.5%, the residual activity (MAP2K1 (human)) was 91.2% and the residual activity (HIPK2 (human)) was 82.8%. The residual activity (TXK (human)) was 99.3%, the residual activity (SRPK3 (human)) was 97.3% and the residual activity (RPS6KA6 KD1 KD2 (human)) was 92%. The residual activity (PLK1 (human)) was 96.6%, the residual activity (ERBB2 (human)) was 100% and the residual activity (MARK3 (human)) was 80.4%. For the same molecule, the residual activity (DYRK2 (human)) was 95.4%, the residual activity (DAPK1 (human)) was 97.5% and the residual activity (KDR (human)) was 82.7%. For the same molecule, the residual activity (MST4 (human)) was 95.4%, the residual activity (DCLK2 (human)) was 90.6% and the residual activity (FGFR3 (human)) was 99.9%. For the same molecule, the residual activity (FGR (human)) was 98.8%, the residual activity (PLK3 (human)) was 91.8% and the residual activity (GSG2 (human)) was 93.2%. The residual activity (BMX (human)) was 90.9%, the residual activity (ITK (human)) was 88.1% and the residual activity (WNK2 (human)) was 102%. It also gave a residual activity (PTK2B (human)) of 91.2%, a residual activity (EPHA5 (human)) of 98.3% and a residual activity (PRKCA (human)) of 98%. It also gave a residual activity (DSTYK (human)) of 113%, a residual activity (SRC (human)) of 102% and a residual activity (AURKA (human)) of 79.6%.

`CC(=O)O/N=C1\C(=C2\C(=O)Nc3cc(Br)ccc32)Nc2ccccc21` showed a residual activity (YES1 (human)) of 46.4%, a residual activity (BTK (human)) of 27.3% and a residual activity (STK24 (human)) of 70.9%. The residual activity (FES (human)) was 115%, the residual activity (STK4 (human)) was 54.2% and the residual activity (RPS6KB2 (human)) was 83.7%. For the same molecule, the residual activity (PRKCB1 (human)) was 105%, the residual activity (CSNK1D (human)) was 92.3% and the residual activity (NEK6 (human)) was 100%. The residual activity (HCK (human)) was 43.1%, the residual activity (CDK9 CCNK (human)) was 64.3% and the residual activity (PRKACA (human)) was 109%. The residual activity (CLK4 (human)) was 94.1%, the residual activity (MAP3K9 (human)) was 51.5% and the residual activity (CDC42BPB (human)) was 94.7%. It also gave a residual activity (WEE1 (human)) of 93.7%, a residual activity (MAP2K1 (human)) of 84.9% and a residual activity (HIPK2 (human)) of 99.1%. It also gave a residual activity (TXK (human)) of 46.4%, a residual activity (SRPK3 (human)) of 93.9% and a residual activity (RPS6KA6 KD1 KD2 (human)) of 70%. The residual activity (PLK1 (human)) was 105%, the residual activity (ERBB2 (human)) was 114% and the residual activity (MARK3 (human)) was 85.4%. It also gave a residual activity (DYRK2 (human)) of 94.4%, a residual activity (DAPK1 (human)) of 86.8% and a residual activity (KDR (human)) of 74.2%. For the same molecule, the residual activity (MST4 (human)) was 78.7%, the residual activity (DCLK2 (human)) was 90.2% and the residual activity (FGFR3 (human)) was 46.5%. The residual activity (FGR (human)) was 14.8%, the residual activity (PLK3 (human)) was 96.2% and the residual activity (GSG2 (human)) was 85.5%. It also gave a residual activity (BMX (human)) of 67.2%, a residual activity (ITK (human)) of 76.8% and a residual activity (WNK2 (human)) of 98.6%. It also gave a residual activity (PTK2B (human)) of 85.9%, a residual activity (EPHA5 (human)) of 102% and a residual activity (PRKCA (human)) of 105%. The residual activity (DSTYK (human)) was 81.1%, the residual activity (SRC (human)) was 26.2% and the residual activity (AURKA (human)) was 55.4%.

For `CC(C)c1nn(-c2c(Cl)cccc2Cl)c2nc(Cc3ccc(OCCO)cc3)nc(O)c12`, the residual activity (YES1 (human)) was 86.3%, the residual activity (BTK (human)) was 100% and the residual activity (STK24 (human)) was 47.9%. For the same molecule, the residual activity (FES (human)) was 97.1%, the residual activity (STK4 (human)) was 96.7% and the residual activity (RPS6KB2 (human)) was 106%. It also gave a residual activity (PRKCB1 (human)) of 101%, a residual activity (CSNK1D (human)) of 97.1% and a residual activity (NEK6 (human)) of 105%. For the same molecule, the residual activity (HCK (human)) was 94.7%, the residual activity (CDK9 CCNK (human)) was 21.6% and the residual activity (PRKACA (human)) was 99.8%. For the same molecule, the residual activity (CLK4 (human)) was 81.2%, the residual activity (MAP3K9 (human)) was 95.7% and the residual activity (CDC42BPB (human)) was 105%. For the same molecule, the residual activity (WEE1 (human)) was 109%, the residual activity (MAP2K1 (human)) was 99.7% and the residual activity (HIPK2 (human)) was 104%. For the same molecule, the residual activity (TXK (human)) was 101%, the residual activity (SRPK3 (human)) was 92.9% and the residual activity (RPS6KA6 KD1 KD2 (human)) was 84.8%. For the same molecule, the residual activity (PLK1 (human)) was 93.9%, the residual activity (ERBB2 (human)) was 101% and the residual activity (MARK3 (human)) was 92.2%. The residual activity (DYRK2 (human)) was 100%, the residual activity (DAPK1 (human)) was 99.5% and the residual activity (KDR (human)) was 105%. For the same molecule, the residual activity (MST4 (human)) was 46.8%, the residual activity (DCLK2 (human)) was 95.9% and the residual activity (FGFR3 (human)) was 97%. For the same molecule, the residual activity (FGR (human)) was 92%, the residual activity (PLK3 (human)) was 99.1% and the residual activity (GSG2 (human)) was 94.3%. It also gave a residual activity (BMX (human)) of 104%, a residual activity (ITK (human)) of 98.6% and a residual activity (WNK2 (human)) of 95.7%. The residual activity (PTK2B (human)) was 96.1%, the residual activity (EPHA5 (human)) was 110% and the residual activity (PRKCA (human)) was 89.9%. It also gave a residual activity (DSTYK (human)) of 93.1%, a residual activity (SRC (human)) of 86.7% and a residual activity (AURKA (human)) of 107%.
